From paper PMC5532363, “Synergistic blending of high-valued heterocycles inhibits growth of Plasmodium falciparum in culture and P. berghei infection in mouse model” (Scientific Reports, 2017)
Like-named read-outs stand apart in the source and are kept apart here.

Assays:
[1] = system: P. falciparum 3D7 (Pf3D7), CQ sensitive; experiment: SYBR Green I growth inhibition assay, asynchronous P. falciparum 3D7 culture; assay type: cell-based, Plasmodium falciparum; details: for IC50: Plasmodium falciparum; for IC50 (SE) µM / IC50 (SE) µg/mL: Pf3D7, asynchronous culture
Text: Antimalarial activity of all the listed Pht analogues was initially assessed on asynchronous cultures of P. falciparum 3D7 (Pf3D7) clone using the SYBR Green assay. […] The mean IC50 values are based on three separate experiments (Table 1).
The laboratory-adapted P. falciparum strains 3D7 (Africa; CQ sensitive) and W2 (Africa; CQ resistant), were acquired from Malaria Research and Reference Reagent Resource Center (MR4) (Manassas, VA, USA) and maintained with type O +ve erythrocytes suspended in continuous complete culture medium as described. Complete culture media consisted of 10.43 g/litre of RPMI 1640-HEPES supplemented with 10% (vol/vol) human AB serum, 92.6 mg/litre L-glutamine, 50 mg/liter hypoxanthine, 2 g/litre sodium bicarbonate (Sigma-Aldrich, St. Louis, MO). Incubation of cultures was at 37 °C and maintained in a low oxygen atmosphere (5% O2, 5% CO2, 90% N). The levels of parasitemia in the cultures were maintained at between 2 and 10%, with 5% hematocrit. Media was changed after every 24 hours and parasitemia monitored every 48 hours. Synchronous cultures were prepared by sorbitol lysis. Stock solutions of the Pht, Pht analogues, and DHA were prepared in absolute dimethyl sulfoxide (DMSO) while CQ was prepared in distilled water. The prepared drug stock solutions were used immediately or stored at −80 °C for not longer than one month before use. Stock solutions were further diluted in serum free RPMI 1640 media (stock solution solvent final conc. 0.05%) before performing a 2-fold serial dilution to achieve dose ranges of 0.2 µM to 100 µM (Pht and derivatives), 7.8 to 2,000 nM (CQ) and 0.17 to 87.5 nM (DHA). 25 μL of the drug diluents were aliquoted into 96 well plates and used immediately. Alternatively, the stock solutions were diluted in distilled water, 2-fold serial dilution performed on a 96 well plate and allowed to air dry in a laminar flow hood after which dried plates were stored at 4 °C until use. SYBR Green I assay technique with additional modification was used for drug susceptibility testing of the parasites. Parasite cultures of >1% parasitemia were diluted to 1% parasitemia and 2% hematocrit and 200 μL were transferred onto drug pre-dosed plates and incubated at 37 °C for 90 hours, [40]. Drug exposure was terminated by freezing the drug plates at −80 °C for 24 hours after which lysis buffer containing (per liter) 100 mM Tris-HCl, 10 mM EDTA, 0.016% Saponin, 1.6% triton X-100 and 20X SYBR Green I dye was added and the sample incubated for 2 hours in the dark. Relative fluorescence units (RFU) were read using the Perkin Elmer Wallac 1420 fluorescence plate reader, with excitation and emission wavelengths of 485 nm and 535 nm respectively. The readouts values were aligned with corresponding drug doses and analysis performed by Graph-pad Prism software. The drug concentrations (x value) were transformed using X = Log[X] and plotted against the counts (y values) and the data analysed by non-linear regression (sigmoid dose-response/variable slope equation) to yield the IC50.

P. berghei NK65 = experiment: Modified Peter's 4-day suppressive test in P. berghei NK65 infected Swiss albino mice; assay type: in vivo, Plasmodium berghei; details: 6h/6u 50 mg/kg, artemisinin 5 mg/kg, s.c. for four consecutive days, n = 6/group
Method: The antimalarial effect of two active analogues, 6h and 6u (administered at 50 mg/kg of body weight), was determined in mice infected with P. berghei NK65, a strain, which results in high levels of blood-stage parasitemia. […] However, the 6u analogue had better antimalarial efficacy than the 6h analogue (Fig. 6A). As such, we then evaluated the efficacy of 6u (50 mg/kg) in combination with artemisinin (5 mg/kg of body weight) at reduced dosage in the murine malaria model. […] The median survival times of animals treated with Pht 6u alone, as well in combination with ART were 23 and 27.5 days, respectively (P<0.001).
Figure 6 Antimalarial effect of Pht analogs (6h and 6u) alone and in combination with Artemisinin (6u and ART) on parasitemia and survival in mice infected with P. berghei NK65. Mice were injected with 1 × 10^7 P. berghei infected RBCs. After 48 hours mice were treated with control (PBS: untreated), 6h and 6u (alone), and 6u in combination with artemisinin (all injected subcutaneously) for four consecutive days. The % of parasitemia was determined for the groups on days 5, 8 and 15 by randomly selecting 10 different optical fields on blood smears. (A) Administration of 6h and 6u (alone), and 6 u in combination with ART. Data are the mean ± SEM from six animals per treatment group. (B) Survival in the treatment groups (n = 6/group). (C) Photomicrograph of blood smears of untreated versus treatment groups at day 15 post infection (100x magnification). ART, Artemisinin; *P < 0.05. TEXT PRINTED IN THE PICTURE: (B) Phthalimide 6h: MST- 19.5 | (B) Phthalimide 6u: MST- 23 | (B) Artemisinin: MST- 21.5 | (B) Phthalimide 6u+Artemisinin: MST- 27.5
All animal experiments were performed in female Swiss albino mice (4 to 5 weeks old, weighing 25 to 30 g). The animals were housed under standard controlled conditions at 25 °C with a 12-h light-dark cycle and access to sterilized food pellets and water. All experiments were carried out in accordance with the standard procedures approved by the Animal Ethics Committee of the University of Delhi South Campus, under the Control and Supervision of Experiments on Animals (CPCSEA), Ministry of Social Justice and Empowerment, Government of India. […] The antimalarial activity was carried out in accordance with a slightly modified version of the Peter’s 4-day suppressive test[43]. The animals were assigned to each group (n = 6). Subsequently, after 48 hour of postinfection, the parasitemia level reached 1 to 2%, and all the groups of mice were treated by subcutaneous (s.c.) injection with compounds 6h and 6u alone as well in combination with artemisinin solubilized in DMSO. One group was kept as a control and treated with physiological saline. The efficacy of the treatment was monitored by measuring the parasitemia and survival on days 5, 8 and 15 posttreatments by obtaining thin smears of blood withdrawn from the tail vein of infected mice and staining with 10% Giemsa. The level of parasitemia was determined by counting infected and noninfected erythrocytes from 10 to 15 randomly selected optical fields at 100x magnification and expressed as the number of infected erythrocytes per 100 erythrocytes. The survival of mice was recorded and observed for external symptoms, such as change in body weight, ruffled fur, lethargy and paralysis, until 30 or 40 days posttreatment. The reduction in the level of parasitemia was taken as the index for the curative activities of the drugs. The percentage of parasitemia was calculated manually with the Cell Counting Aid software[44] using the formula (total no. of parasitized RBCs)/(total no. of RBCs) × 100.
For in-vivo experiments, statistical differences between two groups were determined by Student’s t test and between multiple groups using one-way analysis of variance (ANOVA), with P values of <0.05, by GraphPad Prism (version 5.01; GraphPad Software, Inc., CA). […]

[2] = 3D7, Pf3D7, asynchronous culture, SYBR Green, mean of three experiments, NDR / No IC50 = no dose response, read-out: IC50 (SE) µM
[3] = 3D7, Pf3D7, asynchronous culture, SYBR Green, mean of three experiments, NDR / No IC50 = no dose response, read-out: IC50 (SE) µg/mL
[4] = SYBR Green, mean of three experiments, NDR / No IC50 = no dose response

CC(C)[C@H](c1nc2ccccc2n1Cc1cn(-c2ccccc2)nn1)N1C(=O)c2ccccc2C1=O [Compound 6k]
IC50 [1, 2]: 30.9 µM | IC50 [1, 3]: 16 µg/mL | melting point: 221 to 223 °C

CC(C)C[C@H](c1nc2ccccc2n1Cc1cn(-c2ccc(F)cc2)nn1)N1C(=O)c2ccccc2C1=O [Compound 6c]
IC50 [1, 2]: 17.3 µM | IC50 [1, 3]: 8.8 µg/mL

CC[C@@H](C)[C@H](c1nc2ccccc2n1Cc1cn(-c2ccc(OC)cc2)nn1)N1C(=O)c2ccccc2C1=O [Compound 6i]
IC50 [1, 2]: 40 µM | IC50 [1, 3]: 22.5 µg/mL | melting point: 135 to 137 °C

CC[C@@H](C)[C@H](c1nc2ccccc2n1Cc1cn(-c2ccccc2)nn1)N1C(=O)c2ccccc2C1=O [Compound 6f]
IC50 (SE) µM [1, 4]: NDR | IC50 (SE) µg/mL [1, 4]: NDR | melting point: 211 to 213 °C

CC(C)C[C@H](c1nc2ccccc2n1Cc1cn(CC(=O)O)nn1)N1C(=O)c2ccccc2C1=O [Compound 6q]
IC50 [1, 2]: 8.4 µM | IC50 [1, 3]: 4.1 µg/mL

C[C@H]1[C@@H](O)O[C@@H]2O[C@@]3(C)CC[C@H]4[C@H](C)CC[C@@H]1[C@@]24OO3 [DHA, dihydroartemisinin, reference compound]
IC50 [1, 2]: 0.003 µM | IC50 [1, 3]: 0.0017 µg/mL

CCOC(=O)Cn1cc(Cn2c([C@@H](CC(C)C)N3C(=O)c4ccccc4C3=O)nc3ccccc32)nn1 [Compound 6p]
IC50 [1, 2]: 62 µM | IC50 [1, 3]: 31 µg/mL | melting point: 147 to 149 °C

O=C1NC(=O)c2ccccc21 [I, Phthalimide, reference compound]
IC50 [1, 2]: 5.14 µM | IC50 [1, 3]: 0.8 µg/mL

CCCCCCn1cc(Cn2c([C@@H](CC(C)C)N3C(=O)c4ccccc4C3=O)nc3ccccc32)nn1 [Compound 6t]
IC50 [1, 2]: 28 µM | IC50 [1, 3]: 14 µg/mL | melting point: 146 to 148 °C

Cc1ccc(-n2cc(Cn3c([C@@H](CC(C)C)N4C(=O)c5ccccc5C4=O)nc4ccccc43)nn2)cc1 [Compound 6e]
IC50 [1, 2]: 25 µM | IC50 [1, 3]: 13 µg/mL

CCOC(=O)Cn1cc(Cn2c([C@@H](C(C)C)N3C(=O)c4ccccc4C3=O)nc3ccccc32)nn1 [6a′]
IC50 (SE) µM [1, 4]: No IC50 | IC50 (SE) µg/mL [1, 4]: No IC50

CC[C@@H](C)[C@H](c1nc2ccccc2n1Cc1cn(CC(=O)O)nn1)N1C(=O)c2ccccc2C1=O [Compound 6w]
IC50 [1, 2]: 15.6 µM | IC50 [1, 3]: 11.6 µg/mL

CC[C@@H](C)[C@H](c1nc2ccccc2n1Cc1cn(-c2ccc(C)cc2)nn1)N1C(=O)c2ccccc2C1=O [Compound 6j]
IC50 [1, 2]: 73 µM | IC50 [1, 3]: 33.4 µg/mL | melting point: 198 to 201 °C

CCN(CC)CCCC(C)Nc1ccnc2cc(Cl)ccc12 (stereo not shown) [CQ, chloroquine, reference compound]
IC50 ([1]; 3D7, read-out: IC50 (SE) µM): 0.03 µM | IC50 ([1]; 3D7, read-out: IC50 (SE) µg/mL): 0.015 µg/mL

CCCCCCn1cc(Cn2c([C@@H](C(C)C)N3C(=O)c4ccccc4C3=O)nc3ccccc32)nn1 [6e′]
IC50 [1, 2]: 16.7 µM | IC50 [1, 3]: 6.9 µg/mL

CC(C)[C@H](c1nc2ccccc2n1Cc1cn(C2O[C@@H](CO)C(O)[C@@H](O)[C@@H]2O)nn1)N1C(=O)c2ccccc2C1=O (stereo partly shown) [6d′]
IC50 [1, 2]: 48.3 µM | IC50 [1, 3]: 20 µg/mL

CC[C@@H](C)[C@H](c1nc2ccccc2n1Cc1c[nH]nn1)N1C(=O)c2ccccc2C1=O [Compound 6z]
IC50 (SE) µM [1, 4]: No IC50 | IC50 (SE) µg/mL [1, 4]: No IC50

COc1ccc(-n2cc(Cn3c([C@@H](CC(C)C)N4C(=O)c5ccccc5C4=O)nc4ccccc43)nn2)cc1 [Compound 6d]
IC50 (SE) µM [1, 4]: NDR | IC50 (SE) µg/mL [1, 4]: NDR

CCOC(=O)Cn1cc(Cn2c([C@@H]([C@H](C)CC)N3C(=O)c4ccccc4C3=O)nc3ccccc32)nn1 [Compound 6v]
IC50 (SE) µM [1, 4]: No IC50 | IC50 (SE) µg/mL [1, 4]: No IC50

CC[C@@H](C)[C@H](c1nc2ccccc2n1Cc1cn(-c2ccc(Cl)cc2)nn1)N1C(=O)c2ccccc2C1=O [Compound 6g]
IC50 (SE) µM [1, 4]: NDR | IC50 (SE) µg/mL [1, 4]: NDR | melting point: 194 to 196 °C

CC(C)[C@H](c1nc2ccccc2n1Cc1cn(-c2ccc(Cl)cc2)nn1)N1C(=O)c2ccccc2C1=O [Compound 6l]
IC50 (SE) µM [1, 4]: NDR | IC50 (SE) µg/mL [1, 4]: NDR | melting point: 182 to 184 °C

Cc1ccc(-n2cc(Cn3c([C@@H](C(C)C)N4C(=O)c5ccccc5C4=O)nc4ccccc43)nn2)cc1 [Compound 6o]
IC50 [1, 2]: 23.5 µM | IC50 [1, 3]: 17.5 µg/mL | melting point: 169 to 171 °C

C[C@@H]1CC[C@H]2[C@@H](C)C(=O)O[C@@H]3O[C@@]4(C)CC[C@@H]1[C@]32OO4 [Artemisinin, reference compound]
median survival time (MST) (P. berghei NK65): 21.5 days

CC(C)[C@H](c1nc2ccccc2n1Cc1cn(CC(=O)O)nn1)N1C(=O)c2ccccc2C1=O [6b′]
IC50 [1, 2]: 7.2 µM | IC50 [1, 3]: 3.8 µg/mL

CC(C)C[C@H](c1nc2ccccc2n1Cc1cn(-c2ccc(Cl)cc2)nn1)N1C(=O)c2ccccc2C1=O [Compound 6b]
IC50 (SE) µM [1, 4]: NDR | IC50 (SE) µg/mL [1, 4]: NDR

COc1ccc(-n2cc(Cn3c([C@@H](C(C)C)N4C(=O)c5ccccc5C4=O)nc4ccccc43)nn2)cc1 [Compound 6n]
IC50 [1, 2]: 9.6 µM | IC50 [1, 3]: 5.5 µg/mL | melting point: 125 to 127 °C
